Values quoted from earlier work in patent US7230101B1, “Synthesis of methotrexate-containing heterodimeric molecules” (GPC Biotech, Inc., priority 2002, dated 2007).
Values belong to the compound of their own block, whether it stands above or below them.

Experiments:
[1] = target: Glutathione-S-Transferase; conditions: read-out: Affinity, dissociation constant, known in the art
6 X His = conditions: dissociation constant, known in the art, read-out: Affinity
Tet-R = Tet-R (Escherichia coli, UniProt P04483); conditions: dissociation constant, known in the art, read-out: Affinity
Tet-R, sequence (P04483 whole entry): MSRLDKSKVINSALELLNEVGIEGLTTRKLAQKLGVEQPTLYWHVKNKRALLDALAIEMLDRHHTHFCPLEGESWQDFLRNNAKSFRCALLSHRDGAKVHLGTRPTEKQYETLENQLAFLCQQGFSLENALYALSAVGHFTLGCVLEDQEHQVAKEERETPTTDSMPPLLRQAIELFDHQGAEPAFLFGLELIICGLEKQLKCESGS

Kd [1]: 24000 nM
SMILES: N[C@@H](CCC(=O)N[C@@H](CS)C(=O)NCC(=O)O)C(=O)O [Glutathione]

SMILES: [Ni] [Ni]
Kd (6 X His): 800 nM

SMILES: CN(C)[C@@H]1C(=O)C(C(N)=O)=C(O)[C@@]2(O)C(=O)C3=C(O)c4c(O)cccc4[C@@](C)(O)[C@H]3C[C@@H]12 [Tetracyclin]
Kd (Tet-R): 24 nM
